From US20200345725A1, “Methods and Compositions for Treating Cancer” (Omeros Corporation, priority 2019, published 2020)
“And” between values parts separate entries of the source, which are not always exact repeats. Equal entries are not always repeated.

Tests used:
Format in all cases: cell-based
[1] = tested on: purified human T cells; assay: Suppression of cytokine production from purified human T cells by PS liposomes and NECA (MesoScale Discovery); settings: purified human CD3+ T cells, 24 hours, PS liposomes 1 μM, NECA
Protocol: Purified human T cells (untouched total T cells, Astarte Biologies, Inc., CD3+ T cells in FIGS. 72A and 72B and CD8+ T cells in FIG. 72C) were stimulated in quadruplicate at 100,000 cells per well in 96-well flat bottom plates and X-vivo 15 media with the following reagents:
ImmunoCult™ Human CD3/CD28 T Cell Activator (StemCell) (1:50 dilution)
PS liposomes (1 μM) or media control
Adenosine receptor agonist (NECA, 0.1 μM or 0.05 μM) or media control
A combination of both reagents.
After 24 hours of culture (44 hours for the results shown in FIG. 72C), culture media was analyzed for cytokines (MesoScale Discovery).

[2] = tested on: human PBMC; assay: IL-2 in supernatants of human PBMC stimulated with anti-CD3 and anti-CD28, ELISA; settings: human PBMC donor 8, 24 hours post-stimulation; compound 10 1 μM, ZM-241385 0.1 μM, APCP 10 μM; FIG. 71
Protocol: Human PBMCs, obtained from a human volunteer donor (donor 8), were dispensed in X-vivo15 media (Lonza) supplemented with Glutamax, penicillin and streptomycin, at density of 1×10^6 cells/well in a 96-well flat-bottom plate and were cultured in quadruplicate for 3 hours in the presence of:
GPR174 inhibitory compound 10 (1 μM);
CD73 inhibitory compound, adenosine 5′-(a,p-methylene)diphosphate sodium salt (APCP, Tocris, 10 μM);
Combinations of the above agents;
After which 1 μg/mL anti-CD3 antibody (UCHT1) and 0.1 μg/mL anti-CD28 antibody (CD28.2) were added to activate T cells. Supernatants from these cells were collected at 24 hours post-stimulation and the levels of IL-2 were determined by ELISA.

[3] = tested on: mouse splenocytes; assay: IL-2 levels in supernatants of cultured mouse splenocytes (WT or GPR174-KO) stimulated with anti-CD3 and anti-CD28, MSD platform; settings: 2 days
Protocol: To make single cell suspensions from mouse splenocytes, spleens were cut into 1-2 mm^3 pieces with a razor blade and incubated at 37° C. with 10 μg/mL DNase and 1 mg/mL Collagenase D with agitation for 90 min. Spleen fragments and cells were then pressed through a nylon screen, and the resulting cell suspension was washed. In 96-well flat-bottom plates, splenocytes were cultured in quadruplicate with the following conditions for 2 days, after which supernatants were tested for cytokine levels with the MSD platform.
Anti-CD3 (clone 2C11; 0.1 μg/mL)
GPR174 inhibitor (compound 10, 1 μM or 0.3 μM, or DMSO vehicle control)
GPR174 inhibitor (compound 6, 0.3 μM, or DMSO vehicle control)
Adenosine receptor agonist (NECA, 0.1 μM)

[4] = tested on: CHRM1; assay: CRA against CHRM1
From the text: (§1) The inventors used a CRA similar to that described in U.S. Pat. No. 7,309,576 and O'Dowd et al., J. Biomol. Screen. 12:175-85, 2007 to identify compounds that are capable of interacting with GPR174 using a library of approximately 370,000 chemical entities. Briefly described, the CRA assay described in U.S. Pat. No. 7,309,576 involves artificially inserting a NLS into the dopamine D1 receptor (DRD1), which allows the receptor to traffic from the cell membrane to the cell interior, and that the binding of antagonists to the receptor retained the receptor at the cell surface, while removal of the ligand allowed the receptor to continue to internalize from the cell surface. Both antagonists and agonists that selectively bound the receptor retained the receptor on the plasma membrane. GPR174 constructs were generated for use in a CRA-based compound screening assay. From this screen, the inventors initially identified compounds of formula I-VI, as described herein and included in Table 1.
The inventors also sought to validate that the compounds identified using the CRA are modulatory compounds. To this end, the above-described CRA was used to screen a library for compounds that interact with three control non-orphan receptors, and the results of this screen were compared to the results of screening the same library for compound that were identified using a Fluorometric Imaging Plate Reader (FLIPR) assay, a conventional technique commonly used to identify compounds interacting with non-orphan GPCRs signaling through Ca^++. Three non-orphan GPCRs—Muscarinic acetylcholine receptor M1 (CHRM1), Adrenergic receptor alpha 1a (ADRA1a), and Neuropeptide S receptor (NPSR)—were screened against a 10,000-compound GPCR-focused library. Thirty interacting compound “hits” were identified using the CRA, and eighty-one hits were identified using the FLIPR for the CHRM1 receptor; 9 CRA hits and 29 FLIPR hits for the NPS receptor were identified; and 110 CRA hits and 110 FLIPR hits for ADRA1a.
In addition, the CRA can also provide the relative potencies of compounds against the target receptor.

[5] = target: T1, GPR174 (Homo sapiens, UniProt Q9BXC1); assay: Cellular redistribution assay (CRA) for GPR174
From the text: One method for identifying compounds capable of modulating a receptor is using a cellular redistribution assay (“CRA”). Exemplary CRA methods are found in U.S. Pat. No. 7,309,576 issued to O'Dowd et al. and in O'Dowd et al., J. Biomol. Screen. 12:175-85,2007. […] Incorporation of the NLS alters the cellular localization of the GPCR, such that the majority of the NLS-modified receptor is present in the cell interior. An NLS-modified GPCR, when interacting with a functionally active compound, is mostly localized on the cell surface. Thus, it becomes possible to identify receptor modulators without knowledge of the endogenous ligand or a surrogate ligand.
The inventors have identified a number of compounds that inhibit GPR174 using a CRA assay similar to that described in U.S. Pat. No. 7,309,576 and in O'Dowd et al., J. Biomol. Screen. 12:175-85, 2007. These compounds are described in detail below.
as §1
Target sequence in this assay (Q9BXC1 1-292 limits assumed): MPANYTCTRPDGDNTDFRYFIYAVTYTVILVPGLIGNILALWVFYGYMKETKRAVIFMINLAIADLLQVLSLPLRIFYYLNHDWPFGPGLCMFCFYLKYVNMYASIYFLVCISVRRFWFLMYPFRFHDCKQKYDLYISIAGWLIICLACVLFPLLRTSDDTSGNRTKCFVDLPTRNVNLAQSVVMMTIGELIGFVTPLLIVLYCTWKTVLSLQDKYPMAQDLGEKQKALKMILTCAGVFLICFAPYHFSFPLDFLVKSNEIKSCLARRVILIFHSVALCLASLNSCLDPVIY

[6] = target: T1, GPR174; assay: CRE-Luc reporter Gs signaling assay with GPR174; set-up: host or cells: HEK293 or CHO cell lines (ATCC); settings: for Gs pathway in the presence of GPR174 (CRE-Luc reporter): increasing concentrations of compound
Target sequence in this assay (Q9BXC1 whole entry): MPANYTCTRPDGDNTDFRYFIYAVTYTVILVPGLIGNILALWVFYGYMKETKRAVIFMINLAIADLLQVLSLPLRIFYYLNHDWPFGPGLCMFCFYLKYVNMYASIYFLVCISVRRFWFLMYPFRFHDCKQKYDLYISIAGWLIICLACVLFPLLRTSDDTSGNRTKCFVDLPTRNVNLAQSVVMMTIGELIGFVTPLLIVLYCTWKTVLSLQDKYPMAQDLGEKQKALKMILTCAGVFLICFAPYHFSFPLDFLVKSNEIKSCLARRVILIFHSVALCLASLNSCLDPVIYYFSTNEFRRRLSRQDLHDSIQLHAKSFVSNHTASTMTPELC

[7] = target: T2, ADBR2 (Homo sapiens, UniProt P07550); assay: CRE-Luc reporter assay with control receptor ADBR2
T2 construct: host or cells: HEK293 or CHO cell lines (ATCC)
Protocol: The DNA/lipofectamine 2000 mix (3000 μL) was incubated at room temperature for 30 minutes and then added into a 10 cm culture dish (Corning, NY) containing 70-90% confluent cultured cells, (HEK293 or CHO cell lines (ATCC, VA)), in 15 mL of media. […] The cells were further incubated at 37° C. for various times. The media were removed and the cells lysed.
Compounds were tested in the reporter system with increasing concentrations of GPR174-interacting compounds.
The DNA/lipofectamine 2000 mix (3000 μL) was incubated at room temperature for 30 minutes and then added into a 10 cm culture dish (Corning, NY) containing 70-90% confluent cultured cells, typically HEK293 or CHO cell lines (ATCC, VA), in 15 mL of media. […] Media (26 mL) were added to the detached cells and 120 μL of transfected cells were transferred to each well on a 96-well plate. Increasing concentration of each compound in DMSO (1.2 μl) was added to the cells after plating into the 96-well plate. The cells were further incubated at 37° C. for various times. The media were removed, and the cells lysed.
ADBR2 is a GPCR, like GPR174, that activates the Gs signaling pathway.

[8] = target: T1, GPR174; assay: GloSensor cAMP assay with GPR174, with or without agonist LysoPS; set-up: host or cells: HEK293 or CHO cell lines (ATCC)
Protocol: In order to confirm that GPR174 interacting compound 4 is an antagonist of GPR174-mediated Gs signaling, a GloSensor assay was carried out with increasing concentrations of compound 4 in the presence or absence of a fixed concentration (1 μM) of the GPR174 agonist LysoPS as follows.
The DNA/lipofectamine 2000 mix (3000 μL) was incubated at room temperature for 30 minutes and then added into a 10 cm culture dish (Corning, NY) containing 70-90% confluent cultured cells, typically HEK293 or CHO cell lines (ATCC, VA), in 15 mL of media. […] Media (26 mL) was added to the detached cells and 100 μL of transfected cells were transferred to each well on a 96-well plate. The cells were further incubated at 37° C. overnight. The following day, the media were removed and 100 μl of equilibration media (Promega) was added to each well to the manufacturer's directions. The cells were then incubated at room temperature for 2 hours and the cell plates were pre-read with a SpectraMax L (Molecular Devices, CA). After the pre-read, increasing concentrations of each compound in DMSO (1.0 μl) was added to the cells. The cell plates containing the compound were read immediately after the compound was added and at various times up to 30 minutes after the addition of the compound with a SpectraMax L (Molecular Devices, CA). Data were analyzed with either Excel (Microsoft, WA) or Prism 4.03 (GraphPad, CA).
Target sequence in this assay (Q9BXC1 whole entry, species assumed): as the sequence (Q9BXC1 whole entry) above

[9] = target: T2, ADBR2; assay: GloSensor cAMP assay with ADBR2

T2 sequence (P07550 whole entry): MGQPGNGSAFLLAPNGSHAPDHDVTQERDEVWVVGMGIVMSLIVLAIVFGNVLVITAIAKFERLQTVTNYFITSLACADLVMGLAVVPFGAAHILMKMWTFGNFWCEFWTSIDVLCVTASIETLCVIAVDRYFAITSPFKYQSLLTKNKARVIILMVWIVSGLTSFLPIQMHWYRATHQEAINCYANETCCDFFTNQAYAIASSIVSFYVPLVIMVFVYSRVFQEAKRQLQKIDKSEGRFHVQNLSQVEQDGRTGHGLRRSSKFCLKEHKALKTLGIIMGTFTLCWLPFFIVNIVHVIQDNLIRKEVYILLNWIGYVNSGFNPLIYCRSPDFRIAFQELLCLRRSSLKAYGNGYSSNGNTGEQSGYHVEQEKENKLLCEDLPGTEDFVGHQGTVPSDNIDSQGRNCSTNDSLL

CCNC(=O)[C@H]1O[C@@H](n2cnc3c(N)ncnc32)[C@H](O)[C@@H]1O [NECA]
IL-2 FC vs Media ([1]; FIG. 72A): 0.42 fold change
IFN-γ FC vs Media ([1]; FIG. 72B): 0.31 fold change

Nc1nc(NCCc2ccc(O)cc2)nc2nc(-c3ccco3)nn12 [ZM-241385]
increase of IL-2 levels [2]: 1.4 fold
increase of IL-2 levels ([3]; GPR174-KO splenocytes, no NECA, ZM-241385 0.1 μM, FIG. 68B): 1.3 fold
increase of IL-2 levels ([3]; WT splenocytes, NECA 0.1 μM, compounds 10, 6 0.3 μM, ZM-241385 0.2 μM, FIG. 69): 2 fold
increase of IL-2 levels ([3]; WT splenocytes, no NECA, compound 10 1 μM, ZM-241385 0.1 μM, FIG. 68A): 1.3 fold

CC(=O)N1CCN(c2cc(N3CCCCC3)c(F)cc2[N+](=O)[O-])CC1 [compound 2]
activity against CHRM1 in the CRA (FIG. 5B) [4]: do not show any activity
dose-response curve against GPR174 in the CRA (FIG. 5A) [5]: show a dose-response curve
Gs pathway in the presence of GPR174 (CRE-Luc reporter) [6]: inhibited
Fold decrease in Gs signaling activity ([6]; pCRE-Luc reporter): 1.7 fold
EC50 ([6]; pCRE-Luc reporter, multiple values = separate experiments): 400 nM and 300 nM
Gs pathway in the presence of ADBR2 (CRE-Luc reporter) [7]: did not inhibit

CCCC(=O)c1ccc(N2CCN(S(=O)(=O)c3ccc(C)cc3)CC2)c(F)c1 [compound 4]
competition with the GPR174 agonist LysoPS (GloSensor, FIG. 21A) ([8]; LysoPS fixed at 1 μM): does compete
Gs pathway in the presence of GPR174 (GloSensor, FIG. 21A) ([8]; compound alone): does not modulate
Gs signaling in the presence of ADBR (GloSensor, FIG. 21B) [9]: neither compound 4 nor LysoPS modulate Gs signaling
activity against CHRM1 in the CRA (FIG. 5B) [4]: do not show any activity
dose-response curve against GPR174 in the CRA (FIG. 5A) [5]: show a dose-response curve
Gs pathway in the presence of GPR174 (CRE-Luc reporter) [6]: did not modulate
Human GPR174 CRE Activity: nature of the compound (IA, antagonist, NM) ([6]; pCRE-Luc reporter): GPR174 antagonist
Human GPR174 CRE Activity: nature of the compound (IA, antagonist, NM) ([6]; pCRE-Luc reporter, listed as Compound 4): GPR174 antagonist
Gs pathway in the presence of ADBR2 (CRE-Luc reporter) [7]: did not modulate

adenosine 5′-(a,p-methylene)diphosphate sodium salt [APCP]
increase of IL-2 levels [2]: 1.5 fold
